The values that follow come from patent publication US6780994B2, “Phthalimido arylpiperazines useful in the treatment of benign prostatic hyperplasia” (Ortho-McNeil Pharmaceutical, Inc., priority 1998, dated 2004).

The IC50 is the concentration that inhibits the measured activity by half.

The target of one experiment is T1, α1b-AR (Homo sapiens, UniProt P35368).
T1 construct: expressed in transfected cells; host or cells: COS cells, pcDNA3 vector, transient DEAE-dextran transfection
T1 sequence (P35368 1-520): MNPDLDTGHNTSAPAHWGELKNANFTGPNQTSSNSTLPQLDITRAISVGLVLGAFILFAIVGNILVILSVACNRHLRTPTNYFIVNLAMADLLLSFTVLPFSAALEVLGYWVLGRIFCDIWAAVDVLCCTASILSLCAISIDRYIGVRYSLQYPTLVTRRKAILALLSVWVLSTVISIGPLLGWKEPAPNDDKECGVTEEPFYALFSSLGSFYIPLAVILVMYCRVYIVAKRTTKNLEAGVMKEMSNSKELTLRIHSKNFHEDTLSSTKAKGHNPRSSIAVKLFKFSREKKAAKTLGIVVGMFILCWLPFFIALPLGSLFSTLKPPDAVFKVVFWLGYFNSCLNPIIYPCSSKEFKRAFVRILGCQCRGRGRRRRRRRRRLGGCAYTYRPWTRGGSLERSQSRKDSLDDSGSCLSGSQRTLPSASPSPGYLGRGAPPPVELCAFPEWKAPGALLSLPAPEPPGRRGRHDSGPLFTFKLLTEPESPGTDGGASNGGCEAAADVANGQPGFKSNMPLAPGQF
The experiment is described as follows: radioligand ([125I]-HEAT) receptor binding assay, COS cell membranes expressing cloned receptor. The settings on record: [125I]-HEAT 50 pM, 1 hour room temperature. An excerpt:
(§1) The first assay tested the ability of compounds of Formula I to bind to membrane bound receptors α1a-AR, α1b-AR and α1d-AR.
(§2) The DNA sequences of the three cloned human α1-AR subtypes have been published. […] We used published DNA sequence information to design primers for use in RT-PCR amplification of each subtype to obtain cloned cDNAs. Human poly A+ RNA was obtained from commercially available sources and included hippocampus and prostate samples, sources which have been cited in the literature. For the primary screen a radioligand binding assay was used which employed membrane preparations from cells expressing the individual cloned receptor cDNAs. Radiolabeled ligands with binding activity on all three subtypes (non-selective) are commercially available ([125I]-HEAT, [3H]-prazosin). Each α1 receptor subtype was cloned from poly A+ RNA by the standard method of reverse transcription-polymerase chain reaction (RT-PCR). The following sources of polyA+ RNA were used for the cloning of the α1 receptor subtypes: α1a-AR, human hippocampus and prostate, α1b-AR, human hippocampus, α1d-AR, human hippocampus. The resulting cDNAs were cloned into the pcDNA3 mammalian expression vector (Invitrogen Corp., San Diego Calif.). Each DNA was sequenced for verification and to detect any possible mutations introduced during the amplification process. Any deviation in sequence from the published consensus for each receptor subtype was corrected by site-directed mutagenesis.
(§3) The three α1-AR subtypes (a, b, d) were transfected into COS cells using a standard DEAE-dextran procedure with a chloroquine shock. In this procedure, each tissue culture dish (100 mm) was inoculated with 3.5×10^6 cells and transfected with 10 μg of DNA. Approximately 72 hours post-transfection, the cells were harvested and COS membranes were prepared. Transfected COS cells from 25 plates (100 mm) were scraped and suspended in 15 mL of TE buffer (50 mM Tris-HCl, 5 mM EDTA, pH 7.4). The suspension was disrupted with a homogenizer. It was then centrifuged at 1000× g for 10 minutes at 4° C. The supernatant was centrifuged at 34,500× g for 20 minutes at 4° C. The pellet was resuspended in 5 mL TNE buffer (50 mM Tris-HCl, 5 mM EDTA, 150 mM NaCl, pH 7.4). The resulting membrane preparation was aliquoted and stored at −70° C. The protein concentration was determined following membrane solubilization with TritonX-100.
(§4) The ability of each compound to bind to each of the α1-AR subtypes was assessed in a receptor binding assay. [125I]-HEAT, a non-selective α1-AR ligand, was used as the radiolabeled ligand. Each well of a 96-well plate received: 140 μL TNE, […] [125I]-HEAT diluted in TNE (50,000 cpm; final concentration 50 pM), 10 μL test compound diluted in DMSO (final concentration 1 pM-10 μM), […] COS cell membrane preparation expressing one of the three α1-AR subtypes (0.05-0.2 mg membrane protein). The plate was incubated for 1 hour at room temperature and the reaction mixtures were filtered through a Packard GF/C Unifilter filter plate. The filter plate was dried for 1 hour in a vacuum oven. Scintillation fluid ([…]) was added to each well, and the filter plate was counted in a Packard Topcount scintillation counter. Data was analyzed using GraphPad Prism software.
(§5) Tables A through D list the IC50 values expressed in nanomolar concentration for select compounds of the invention in all receptor subtypes.

The target in the next experiment is T2, α1d-AR (Homo sapiens, UniProt P25100).
T2 construct: expressed in transfected cells; host or cells: COS cells, pcDNA3 vector, transient DEAE-dextran transfection
T2 sequence (P25100 1-572): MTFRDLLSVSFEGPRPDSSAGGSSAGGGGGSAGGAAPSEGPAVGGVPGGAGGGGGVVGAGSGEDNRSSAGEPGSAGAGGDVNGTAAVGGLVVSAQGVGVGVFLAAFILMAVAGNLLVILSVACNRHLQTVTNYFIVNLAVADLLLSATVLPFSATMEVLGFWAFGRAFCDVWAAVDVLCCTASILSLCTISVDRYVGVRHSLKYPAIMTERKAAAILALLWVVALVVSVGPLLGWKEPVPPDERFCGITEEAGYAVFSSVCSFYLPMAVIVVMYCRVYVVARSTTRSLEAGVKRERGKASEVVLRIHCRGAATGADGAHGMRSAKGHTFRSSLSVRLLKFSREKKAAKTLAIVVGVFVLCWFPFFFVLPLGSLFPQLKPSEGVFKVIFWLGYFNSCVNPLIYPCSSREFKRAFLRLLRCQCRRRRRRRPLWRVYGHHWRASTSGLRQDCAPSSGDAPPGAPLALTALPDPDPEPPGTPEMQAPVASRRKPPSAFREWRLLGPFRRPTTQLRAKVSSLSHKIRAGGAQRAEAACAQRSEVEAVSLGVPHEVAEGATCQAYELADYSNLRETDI
The experiment is described as above. The settings on record: [125I]-HEAT 50 pM, 1 hour room temperature.
Excerpt: as §1, §2, §3, §4, §5

As for `COc1ccccc1N1C(=O)c2ccc(C(=O)NCC(O)CN3CCN(c4ccccc4OC(C)C)CC3)cc2C1=O` (stereo not shown) [Compound 26], the half-maximal inhibitory concentration (IC50) at α1b-AR is 1640 nM; on α1d-AR it was 74 nM.
On the same counts, the results for `CC(C)Oc1ccccc1N1CCN(CC(O)CNC(=O)c2ccc3c(c2)C(=O)N(c2ccc([N+](=O)[O-])cc2)C3=O)CC1` (stereo not shown) [Compound 30] are more than 2000 nM and 38 nM.
